According to patent US7915293B2, “Ubiquitin ligase inhibitors” (Rigel Pharmaceuticals, Inc., priority 2003, dated 2011):

These molecules were tested against E3 (His-APC11/APC2-"APC") (Homo sapiens, UniProt Q9NYG5+Q9UJX6) (assay: Plate-based E3 ligase assay (APC FLAG), auto-ubiquitination). Settings: 2 concentrations tested.
Format: biochemical
Parameters: key: “+” indicates that the compound exibits inhibitory activity; “−” indicates that low or no inhibitory activity was observed
Description: E3 (His-APC11/APC2-“APC”) auto-ubiquitination was measured as described in U.S. patent application Ser. No. 09/826,312 (Publication No. US-2002-0042083-A1), which is incorporated herein in its entirety. Details of the protocol are described below. Activity in the presence of the compound was determined relative to a parallel control in which only DMSO was added. Values of the IC50 were typically determined using 6 or 8 different concentrations of the compound, although as few as 2 concentrations may be used to approximate the IC50 value.
Nickel-coated 96-well plates (Pierce 15242) were blocked for 1 hour with 100 μl of blocking buffer at room temperature. The plates were washed 4 times with 225 μl of 1×PBS and 80 μl of the reaction buffer were added that contained 100 ng/well of Flag-ubiquitin. To this, 10 μl of the test compound diluted in DMSO were added. After the test compound was added, 10 μl of E1 (human), E2 (Ubch5c), and APC in Protein Buffer was added to obtain a final concentration of 5 ng/well of E1, 20 ng/well of E2 and 100 ng/well of APC. The plate were shaken for 10 minutes and incubated at room temperature for 1 hour. After incubation, the plates were washed 4 times with 225 μl of 1×PBS and 100 μl/well of Antibody Mix were added to each well. The plates were incubate at room temperature for another hour after which they were washed 4 times with 225 μl of 1×PBS and 100 μl/well of Lumino substrate were added to each well. The luminescence was measured by using a BMG luminescence microplate reader.
To prepare the Blocking Buffer (1 liter; 1% Casein in 1×PBS), 10 grams of Casein (Hammersten Grade Casein from Gallard-Schlesinger Inc. #440203) were placed into 1 liter of 1×PBS, stirred on a hot plate and kept between 50-60° C. for an hour. The buffer was allowed to cool to room temperature and then filtered using a Buchner Funnel (Buchner filter funnel 83 mm 30310-109) and Whatman filter paper (Whatman Grade No. 1 Filter paper 28450-070). It was stored at 4° C. until used.
The reaction buffer consisted of 62.5 mM Tris pH 7.6 (Trizma Base—Sigma T-8524), 3 mM MgCl2 (Magnesium Chloride—Sigma M-2393), 1 mM DTT (Sigma D-9779), 2.5 mM ATP (Roche Boehringer Mann Corp. 635-316), 100 ng/well of Flag-ubiquitin, 0.1% BSA (Sigma A-7906), and 0.05% Tween-20 (Sigma P-7949).
The Protein Buffer consisted of 20 mM Tris pH 7.6, 10% glycerol (Sigma G-5516) and 1 mM DTT.
The antibody mix consisted of 0.25% BSA (Sigma A-7906) in 1×PBS, 1/50,000 anti-Flag (Sigma F-3165), 1/100,000 of anti-Mouse IgG-HRP (Jackson Immunoresearch #115-035-146).
The substrate mix consisted of SuperSignal Substrate from Pierce (catalog number 37070ZZ) and was prepared by mixing 100 ml of the peroxide solution, 100 ml of the enhancer solution and 100 ml of Milli-Q® water.

Sequence of E3 (His-APC11/APC2-"APC") (Q9NYG5 whole entry): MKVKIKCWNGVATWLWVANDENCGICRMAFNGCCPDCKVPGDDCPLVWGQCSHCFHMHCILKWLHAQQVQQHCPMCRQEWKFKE
Sequence of E3 (His-APC11/APC2-"APC") (Q9UJX6 whole entry): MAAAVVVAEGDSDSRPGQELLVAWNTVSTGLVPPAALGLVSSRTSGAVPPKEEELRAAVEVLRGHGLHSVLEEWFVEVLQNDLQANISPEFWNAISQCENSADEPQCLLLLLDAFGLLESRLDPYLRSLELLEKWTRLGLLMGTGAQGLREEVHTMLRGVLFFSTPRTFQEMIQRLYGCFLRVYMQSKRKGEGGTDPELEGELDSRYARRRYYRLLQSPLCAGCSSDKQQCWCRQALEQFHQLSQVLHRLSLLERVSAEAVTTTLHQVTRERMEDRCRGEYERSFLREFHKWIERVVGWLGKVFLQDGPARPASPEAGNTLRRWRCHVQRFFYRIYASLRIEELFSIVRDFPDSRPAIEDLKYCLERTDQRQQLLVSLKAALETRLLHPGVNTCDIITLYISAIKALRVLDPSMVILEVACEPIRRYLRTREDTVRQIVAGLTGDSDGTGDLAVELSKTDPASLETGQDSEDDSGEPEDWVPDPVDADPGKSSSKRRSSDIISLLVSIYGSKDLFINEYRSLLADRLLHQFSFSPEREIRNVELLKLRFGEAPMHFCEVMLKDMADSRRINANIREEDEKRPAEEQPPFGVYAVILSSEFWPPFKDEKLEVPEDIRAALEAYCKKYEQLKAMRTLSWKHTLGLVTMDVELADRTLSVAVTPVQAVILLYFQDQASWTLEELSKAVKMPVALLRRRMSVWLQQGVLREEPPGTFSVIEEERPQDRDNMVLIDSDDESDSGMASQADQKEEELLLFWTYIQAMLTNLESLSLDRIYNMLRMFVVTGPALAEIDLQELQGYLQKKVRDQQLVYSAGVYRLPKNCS

Compound | APC Flag (2 pt)
Cc1c(Cl)cccc1NS(=O)(=O)c1ccc(Oc2ccc(F)cc2)cc1 [Example 188, N-(3-chloro-2-methylphenyl)-4-(4-fluoro-phenoxy)benzenesulfonamide] | − (2 pt)
CC(=O)c1cccc(NS(=O)(=O)c2cc(Cl)c(Oc3ccc([N+](=O)[O-])cc3Cl)c(Cl)c2)c1 [Example 186, N-(3-acetylphenyl)-3,5-dichloro-4-(2-chloro-4-nitrophenoxy)benzenesulfonamide] | − (2 pt)
Cc1c(Cl)cccc1NS(=O)(=O)c1ccc(Oc2ccc(Cl)cc2)cc1 [Example 194, N-(3-chloro-2-methylphenyl)-4-(4-chloro-phenoxy)benzenesulfonamide] | − (2 pt)

Same assay, conditions: 8 concentrations tested

Compound | APC Flag 8 pt
O=C(Nc1cc(C(F)(F)F)ccc1Cl)N1CCC(Oc2ccccc2C(F)(F)F)CC1 [Example 307, N-(2-chloro-5-(trifluoromethyl)phenyl)-4-(2-(trifluoromethyl)phenoxy)piperidine-1-carboxamide] | −
Cc1cc(C)c(N(S(=O)(=O)c2cc(Cl)c(Oc3ccc([N+](=O)[O-])cc3Cl)c(Cl)c2)S(=O)(=O)c2cc(Cl)c(Oc3ccc([N+](=O)[O-])cc3Cl)c(Cl)c2)c(C)c1 [Example 142, 3,5-dichloro-4-(2-chloro-4-nitrophenoxy)-N-mesityl-N-(1,3-dichloro-2-(2-chloro-4-nitrophenoxy)-5-sulfonylbenzene)benzene-sulfonamide] | +
O=C(Nc1cc(Cl)ccc1Cl)N1CCC(Oc2ccccc2C(F)(F)F)CC1 [Example 308, N-(2,5-dichlorophenyl)-4-(2-(trifluoromethyl)phenoxy)piperidine-1-carboxamide] | −
O=[N+]([O-])c1ccc(Oc2c(Cl)cc(S(=O)(=O)NCCc3ccc(Cl)cc3Cl)cc2Cl)c(Cl)c1 [Example 127, 3,5-dichloro-4-(2-chloro-4-nitrophenoxy)-N-[2-(2,4-dichlorophenyl)ethyl]benzene-sulfonamide] | +
CC(C)Oc1ccc(NS(=O)(=O)c2cc(Cl)c(Oc3ccc([N+](=O)[O-])cc3Cl)c(Cl)c2)cc1 [Compound 134, 3,5-dichloro-4-(2-chloro-4-nitrophenoxy)-N-[4-isopropoxyphenyl]benzenesulfonamide] | +
Cc1c(Cl)cccc1N(S(=O)(=O)c1cc(Cl)c(Oc2ccc([N+](=O)[O-])cc2Cl)c(Cl)c1)S(=O)(=O)c1cc(Cl)c(Oc2ccc([N+](=O)[O-])cc2Cl)c(Cl)c1 [Example 143, 3,5-dichloro-N-(3-chloro-2-methylphenyl)-4-(2-chloro-4-nitrophenoxy)-N-(1,3-dichloro-2-(2-chloro-4-nitrophenoxy)-5-sulfonylbenzene)benzenesulfonamide] | +
Cc1cc(C)c(NS(=O)(=O)c2cc(Cl)c(Oc3ccc([N+](=O)[O-])cc3Cl)c(Cl)c2)c(C)c1 [Example 144, 3,5-dichloro-4-(2-chloro-4-nitrophenoxy)-N-mesitylbenzenesulfonamide] | +
N#Cc1cccc(NS(=O)(=O)c2cc(Cl)c(Oc3ccc([N+](=O)[O-])cc3Cl)c(Cl)c2)c1 [Example 169, 3,5-dichloro-4-(2-chloro-4-nitrophenoxy)-N-(3-cyanophenyl)benzenesulfonamide] | +
O=[N+]([O-])c1ccc(Oc2c(Cl)cc(S(=O)(=O)N3CCOCC3)cc2Cl)c(Cl)c1 [Example 15, 4-{[3,5-dichloro-4-(2-chloro-4-nitro-phenoxy)phenyl]sulfonyl}morpholine] | −
COc1ccc(Cl)cc1NS(=O)(=O)c1cc(Cl)c(Oc2ccc([N+](=O)[O-])cc2Cl)c(Cl)c1 [Compound 164, 3,5-dichloro-N-(5-chloro-2-methoxyphenyl)-(2-chloro-4-nitrophenoxy)lbenzenesulfonamide] | +
COc1cccc(NS(=O)(=O)c2cc(Cl)c(Oc3ccc([N+](=O)[O-])cc3Cl)c(Cl)c2)c1 [Example 163, 3,5-dichloro-4-(2-chloro-4-nitrophenoxy)-N-(3-methoxyphenyl)benzenesulfonamide] | +
O=C(NCC1CC1)c1ccc(NS(=O)(=O)c2cc(Cl)c(Oc3ccc([N+](=O)[O-])cc3Cl)c(Cl)c2)cc1 [Example 152, N-(cyclopropylmethyl)-4-({[3,5-dichloro-4-(2-chloro-4-nitrophenoxy)phenyl]sulfonyl}amino)benzamide] | +
CNS(=O)(=O)c1cc(Cl)c(Oc2ccc([N+](=O)[O-])cc2Cl)c(Cl)c1 [Example 135, 3,5-dichloro-4-(2-chloro-4-nitrophenoxy)-N-methylbenzenesulfonamide] | +
CC(=N)NS(=O)(=O)c1cc(Cl)c(Oc2ccc([N+](=O)[O-])cc2)c(Cl)c1 [Example 63, N-{[3,5-dichloro-4-(4-nitrophenoxy)phenyl]sulfonyl}ethanimidamide] | −
O=[N+]([O-])c1cc(C(F)(F)F)cc([N+](=O)[O-])c1Oc1ccc(NS(=O)(=O)c2ccc(Cl)cc2)cc1Cl [Example 248, 4-chloro-N-{3-chloro-4-[2,6-dinitro-4-(tri-fluoromethyl)phenoxy]phenyl}benzene-sulfonamide] | −
O=[N+]([O-])c1ccc(Oc2c(Cl)cc(S(=O)(=O)Nc3cc(Cl)cnc3Cl)cc2Cl)c(Cl)c1 [Example 233, 3,5-dichloro-4-(2-chloro-4-nitrophenoxy)-N-(2,5-dichloropyridin-3-yl)benzene-sulfonamide] | +
COc1ccc(CCNS(=O)(=O)c2cc(Cl)c(Oc3ccc([N+](=O)[O-])cc3Cl)c(Cl)c2)cc1 [Example 129, 3,5-dichloro-4-(2-chloro-4-nitrophenoxy)-N-[2-(4-methoxyphenyl)ethyl]benzene-sulfonamide] | +
O=S(=O)(c1ccc(Oc2ccc(Cl)cc2Cl)cc1F)N1CCCCC1 [Example 119, 1-{[4-(2,4-dichlorophenoxy)-2-fluorophenyl]sulfonyl)piperidine] | +
CN(C)CCCNS(=O)(=O)c1cc(Cl)c(Oc2ccc([N+](=O)[O-])cc2Cl)c(Cl)c1 [Example 131] | +
Cc1ccc(N(S(=O)(=O)c2cc(Cl)c(Oc3ccc([N+](=O)[O-])cc3Cl)c(Cl)c2)S(=O)(=O)c2cc(Cl)c(Oc3ccc([N+](=O)[O-])cc3Cl)c(Cl)c2)cc1 [Example 137, 3,5-dichloro-4-(2-chloro-4-nitrophenoxy)-N-(4-methylphenyl)-N-(1,3-dichloro-2-(2-chloro-4-nitrophenoxy)-5-sulfonylbenzene) benzenesulfonamide] | +
NS(=O)(=O)c1cc(Cl)c(Oc2ccc([N+](=O)[O-])cc2Cl)c(Cl)c1 [Compound 124, 3,5-dichloro-4-(2-chloro-4-nitrophenoxy)benzenesulfonamide] | +
O=[N+]([O-])c1ccc(Oc2c(Cl)cc(S(=O)(=O)Nc3ccc4c(c3)OCO4)cc2Cl)c(Cl)c1 [Example 162, N-1,3-benzodioxol-5-yl-3,5-dichloro-4-(2-chloro-4-nitrophenoxy)benzenesulfonamide] | +
N#Cc1c(Cl)cccc1Oc1ccc(S(=O)(=O)Nc2cccc(Br)c2)cc1 [Example 180, N-(3-bromophenyl)-4-(3-chloro-2-cyano-phenoxy)benzenesulfonamide] | −
